Laboratory results from article PMC5705267 (Synapse (New York, N.Y.), 2017).

Biological target: GHSR1a (growth hormone secretagogue receptor 1a, ghrelin receptor) (Homo sapiens, UniProt Q92847)
Test: aequorin Ca2+ mobilization, antagonism of L-692, […] in HEK293 cells
Format: cell-based

Chain of GHSR1a (growth hormone secretagogue receptor 1a, ghrelin receptor) (Q92847 whole entry): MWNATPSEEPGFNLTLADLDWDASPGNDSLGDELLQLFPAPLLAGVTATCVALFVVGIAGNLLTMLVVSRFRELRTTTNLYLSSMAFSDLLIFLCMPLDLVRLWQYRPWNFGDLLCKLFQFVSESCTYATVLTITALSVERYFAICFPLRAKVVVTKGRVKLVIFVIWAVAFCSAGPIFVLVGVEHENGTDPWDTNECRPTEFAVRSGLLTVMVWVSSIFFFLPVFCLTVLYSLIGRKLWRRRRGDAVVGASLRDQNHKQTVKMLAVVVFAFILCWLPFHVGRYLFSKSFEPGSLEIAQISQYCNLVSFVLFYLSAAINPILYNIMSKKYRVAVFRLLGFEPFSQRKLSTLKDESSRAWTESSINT

Cc1nc2ccc(Oc3ccc(F)cc3)cc2c(=O)n1C[C@H]1CCCN(C(C)C)C1 [YIL781]
IC50: 185 nM
